# Reference: US20210340629A1, “BIOMARKERS FOR CANCER THERAPY” (The Council of the Queensland Institute of Medical Research, priority 2018, published 2021)
# Experiments:
# MAP1LC3B promoter = test: Chromatin immunoprecipitation (ChIP) on the MAP1LC3B promoter; type: cell-based, human; settings: D05 cells, 5 μM, 24 h, FIG. 9
# Method: In order to ascertain whether the inhibition of G9a directly impacts MAP1LC3B expression, chromatin immunoprecipitation (ChIP) was performed on the MAP1LC3B promoter. Changes in histone H3K9 dimethylation (H3K9me2) and acetylation (H3K9Ac), as well as the recruitment of RNA Pol II, were compared between vehicle or UNC0642 treated cells (FIG. 9). Consistent with the increase in gene expression observed in FIG. 8, there was a greater than 4-fold reduction in H3K9me2 concomitant with an increase in RNA Pol II recruitment at the MAP1LC3B promoter following UNC0642 treatment.
# (§1) Quantitative RT-PCR and ChIP assays were conducted as previously described (Lee et al. (2010) Mol Cell 39, 71-85). Briefly, total RNA was isolated from either the tumor cells or from xenografts using Trizol (Invitrogen) and reverse transcription was performed from 2 μg of total RNA using the Superscript III cDNA synthesis system (Invitrogen). The abundance of mRNA was detected by an ABI VIIA7 system with SYBR Green Master Mix (Life Technologies). Primer pairs were designed to amplify 90-150 bp mRNA specific fragments and were confirmed as unique products by melting curve analysis. The quantity of mRNA was calculated using the ΔΔCt method and normalized to HPRT. All reactions were performed in triplicates.
# [1] = tested on: D05 and C092 melanoma cell lines; test: Cell cycle analysis (flow cytometric analysis); type: cell-based, human; settings: data not shown
# H3K9me2 = test: Immunoblotting analysis of global H3K9me2; type: cell-based, human; settings: D05 and C008 cell lines, as early as 8 hours and persisted to 24 hours, FIG. 3B
# Method: For immunoblotting, protein whole cell lysates were prepared using RIPA lysis buffer containing 20 mM Tris, pH 8.0, 150 mM NaCl, 10% glycerol, 1% Nonidet P-40 containing protease inhibitor cocktail (Roche). Nuclear extracts were obtained using a standard high salt extraction buffer (20 mM HEPES (pH 7.9), 0.32 M NaCl, 1 mM EDTA, and 1 mM EGTA) supplemented with 1mM DU and protease inhibitor cocktail. Protein assays were performed according to the Bradford method using a protein assay kit (BioRad). […] of denatured proteins were separated using 10% sodium dodecyl sulfate-polyacrylamide gel electrophoresis (SDS-PAGE) and transferred to Polyvinylidene difluoride (PVDF) membranes. The membranes were blocked for 1 hour in 5% skim milk in Tris-buffered saline with Tween 20 (TBST; 10 mM Tris-HCl, 150 mM NaCl, 0.1% Tween 20). Immunoblotting was performed with primary anti G9a (#3306, Cell Signaling), H3K9me2 (ab 1220, Abcam), H3 (ab1791, Abcam) or Tubulin (ab6046, Abcam) and detected with either HRP-conjugated anti-rabbit (#7074, Cell Signaling Technology) or HRP-conjugated anti-mouse (#7076, Cell Signaling Technology). After applying ECL detection reagents (GE Healthcare), protein bands were visualized using X-ray film (Fujifilm).
# normal melanocytes = test: Cell viability by MTT assay, normal melanocytes; type: cell-based; settings: 5 μM, 48 hours, FIG. 2
# Method: UNC0642 was purchased from Sigma Aldrich. The panel of human melanoma cell lines, derived from cutaneous melanomas, is shown in Table 1 and the cells have all been previously described. Cells were maintained in Roswell Park Memorial Institute (RPMI) 1640 supplemented with 10% fetal bovine serum (FBS), 100 U/mL penicillin, and 100 µg/mL streptomycin in a humidified atmosphere of 5% CO2 at 37° C. Normal melanocytes were grown in Clonetics™ MGM™-4 Melanocyte Growth Medium-4 supplemented with CaCl2, phorbol-12-myristate 13-acetate (PMA), recombinant human fibroblast growth factor basic (rhFGF-B), recombinant human insulin (rh-insulin), hydrocortisone, bovine pituitary extract (BPE), FBS and GA-1000 (30 μg/ml Gentamycin and 15 ng/ml Amphotericin) (Lonza).
# For proliferation studies, cells (5×10^3) were seeded in 96-place wells and allowed to adhere overnight, and incubated in fresh growth medium in the presence of either the G9a inhibitor UNC0642 (Sigma Aldrich) or the vehicle control DMSO (Sigma Aldrich). Proliferation was evaluated via real-time imaging using IncuCyte Zoom (Essen BioScience) and/or by performing a 3-(4,5-dimethylthiazol-2-yl)-2,5-diphenyltetrazolium bromide ([…]) assay. After monitoring the cells, 20 μL of MTT (5 mg/mL; Sigma-Aldrich) was added. […] The absorbance value (optical density) of each well was measured at 570 nm.
# D20 melanoma cells = test: In vivo tumor growth analysis, D20 melanoma xenograft; parameters: species or system SCID mice; settings: 5 mg/kg every two days for two weeks, vs vehicle control
# Method: To determine the effect of inhibiting G9a on tumor growth, 6-8 week old SCID mice were subcutaneously injected with D20 BRAF mutant cutaneous melanoma cells. Palpable tumors were allowed to establish (approx. 10 days) before UNC0642 was administered at 5 mg/kg every two days for two weeks. The D20 cell line was used in the subcutaneous model as it had been shown previously to be tumorigenic in vivo and was also sensitive to the drug in vitro.
# Groups of 8 SCID mice per treatment group were used for xenograft studies to ensure adequate power to detect biological differences. All experiments were approved by the QIMR Berghofer Medical Research Institute Animal Ethics Committee. D20 melanoma cells (2×106) were mixed 1:1 ratio with Growth factor-reduced Matrigel (BD Biosciences) and injected subcutaneously into the flank of 6-8 week old mice in 100 μL volume (day 0) and treatments, either DMSO or UNC0642 at 5 mg/kg were administered as indicated in the figure legends. Tumor volumes (width2×length/2) were measured using a digital calliper, and presented as mean±SD. All animals were sacrificed at the same time and the tumors were dissected for further analysis.
# MAP1LC3B = test: Quantitative real time PCR of MAP1LC3B expression in melanoma cell lines; type: cell-based, human; settings: 24 hours
# Method: as §1
# [2] = tested on: C006 and C092 melanoma cell lines; test: Proliferation by IncuCyte Zoom real time cell imaging, less sensitive lines; type: cell-based, human; settings: C006 and C092, 5 μM, 48 hours, compared to vehicle
# Method: Four cell lines were then chosen for further analysis. These were C006 (NRAS mt), C092 (Triple wt), C008 (NF1 mt) and D05 (BRAF mt). These four lines are representatives of the 4 cutaneous melanoma genomic subtypes and include 2 lines (C008 and D05) that were very sensitive to the inhibitor and 2 lines that were less sensitive (C006 and C092). Proliferation of these lines was evaluated by real time cell imaging using IncuCyte Zoom where cells were grown for 48 hours in the presence or absence of 5 μM UNC0642.
# For proliferation studies, cells (5×10^3) were seeded in 96-place wells and allowed to adhere overnight, and incubated in fresh growth medium in the presence of either the G9a inhibitor UNC0642 (Sigma Aldrich) or the vehicle control DMSO (Sigma Aldrich). Proliferation was evaluated via real-time imaging using IncuCyte Zoom (Essen BioScience) and/or by performing a 3-(4,5-dimethylthiazol-2-yl)-2,5-diphenyltetrazolium bromide ([…]) assay. After monitoring the cells, 20 μL of MTT (5 mg/mL; Sigma-Aldrich) was added. The plates were incubated at 37° C. for 3 h before the supernatants were removed, and 100 μL of isopropanol was added to each well. The absorbance value (optical density) of each well was measured at 570 nm.
smiles,measurement,setting,value
COc1cc2c(NC3CCN(C(C)C)CC3)nc(N3CCC(F)(F)CC3)nc2cc1OCCCN1CCCC1 [UNC0642],RNA Pol II recruitment at the MAP1LC3B promoter,MAP1LC3B promoter,increase
same,reduction in H3K9me2 at the MAP1LC3B promoter,MAP1LC3B promoter,greater than 4 fold
same,increase in preG1 population,[1]; C092 (less G9a inhibitor responsive) cell line,absent
same,cell cycle status,"[1]; D05 and C092, flow cytometric analysis",neither D05 nor C092 showed any changes in cell cycle status
same,increase in cells in preG1 phase,[1]; G9a inhibitor responsive cells (D05),greater than 4 fold
same,cells in both G1 and G2/M phases,[1],reduction
same,global H3K9me2,H3K9me2,reduction
same,survival of the normal melanocyte cell culture,normal melanocytes,unaffected
same,tumor weight,"D20 melanoma cells; end-point, P<0.01, FIG. 10B",statistically significantly reduced
same,tumor growth,"D20 melanoma cells; intraperitoneally, P<0.05, FIG. 10A",statistically significantly reduced
same,induction of MAP1LC3B expression,"MAP1LC3B; less sensitive cells (C006 and C092), no statistically significant difference to vehicle, FIG. 8",minimal
same,"MAP1LC3B expression, induction compared to vehicle control","MAP1LC3B; very sensitive lines (D05 and C008), P<0.05, FIG. 8",~2 fold
same,proliferation,[2],much less affected
